The target of the test is Protein Kinase A (PKA) (Homo sapiens, UniProt P17612). Put plainly: pulsed field mobility shift assay screening for Protein Kinase A (PKA) inhibitors. The test is classed as biochemical. Conditions: from dose response curve (FIG. 10), 7 H9 concentrations 0.15-30.75 μM; pulsed field and standard (constant field) mobility shift assays predict same Ki; read-out: Ki value for the inhibitor. On the procedure: In an exemplary embodiment, the pulsed field mobility shift assay was used for screening for Protein Kinase A (PKA) inhibitors. Samples were drawn from a 96 well plate into a microfluidic device through a capillary. The plate contained 7 different concentration samples (0.15 μM, 0.32 μM, 0.63 μM, 1.54 μM, 2.52 μM, 5.05 μM, and 30.75 μM) of H9 at randomly chosen wells. Except for a single well containing the 30.75 μM concentration of H9, two wells contained each of the other six concentrations of H9. The last column of each row of the well plate contained a marker used to indicate the end of row. In this embodiment, the marker was 1 μM of 100% converted PKA product. Once in the reaction channel of the microfluidic device, the pressure driven velocity of the sample was set at 0.028 cm/s and the applied electric field was set to 997 V/cm. […] Each sample was sipped for 30 seconds separated by a 30 second buffer sip. […] From the data in FIGS. 8 and 9, the parameter C1/C0, which is the ratio of the fluorescence measured while the electric field is on to the fluorescence measured while the field is off, was determined for each of the seven H9 concentrations. That parameter was also measured in the absence of H9 to provide a baseline value. The deviation from the baseline value ΔC/C=((C1/C0)|H9sample−(C1/C0)|buffer), was evaluated for each H9 sample. […]

Ki data for 1 compound are collected here from patent publication US9683994B2, “High throughput mobility shift” (Caliper Life Sciences, Inc., priority 2002, dated 2017).

As a reminder, the Ki is a dissociation constant, usually derived from enzyme kinetics or from competition with a known ligand.

`NCCNS(=O)(=O)c1cccc2cnccc12` [H9]: the Ki is 3.5 µM.
